Experimental data reported in patent publication US20240308988A1, “Method For Controlling Diamide Resistant Pests and Compounds Therefor” (priority 2021, published 2024).

Columns and labels:
[1] = system: Plutella xylostella (Diamond back moth) ryanodine receptor, containing the G4946E resistance mutation; assay: In vitro calcium fluorescence assay (Fluo-8 NW, FDSS) in human embryonic kidney cells expressing the ryanodine receptor; type: cell-based; conditions: table, EC50 (compound)/EC50 (cyantraniliprole), G4946E RyR in HEK cells; for REC50 (Comparative compound): secondary amide analogue
Description: Human embryonic kidney cells expressing the Plutella xylostella (Diamond back moth) ryanodine receptor, containing the G4946E resistance mutation, are loaded with Fluo-8 No Wash (NW) calcium-sensitive dye which responds by fluorescence to a change in intracellular calcium (e.g. stimulated by activation of ryanodine receptor). Test compounds are added in 10 rates to a 384-well plate containing dye-loaded cells and the fluorescent signal is measured using the Hamamatsu FDSS (Functional Drug Screening system). Dose-response curves are plotted to estimate the EC50. EC50 are normalized against an in-assay reference standard (cyantraniliprole) to address inter-assay variability. The ratio for a given compound is then obtained by the following formula:
REC50=EC50 (compound)/EC50 (cyantraniliprole).

[2] = system: Resistant Plutella xylostella R1 (multi-resistant larvae having the G4946E resistance mutation); assay: Resistant Plutella xylostella R1 (Diamond back moth) larvicide L3, feeding/contact, sprayed Chinese cabbage leaves; type: in vivo; conditions: Plutella xylostella, 96 h, read-out: control of the resistant strain of Plutella xylostella R1
Description: Resistant Plutella xylostella R1 (Diamond back moth) larvicide L3, feeding/contact Chinese cabbage plants were sprayed with diluted test solutions in an application chamber. Cut off leaves were placed into petri dishes with wetted filter paper and infested 1 day after application with 10 L3 multi-resistant Plutella xylostella larvae having the G4946E resistance mutation.
Samples were assessed 4 days after infestation for mortality and growth regulation.
Chlorantraniliprole was used as standard and a resistance factor of 146 was obtained for this strain.
Plutella xylostella resistant strain R1 originally collected from Taiwan in 2012 that carries the RyR mutation G4946E conferring resistance to diamides. The strain is reared on cabbage plants (Brassica aleracea) and selected approximately every two weeks with chlorantraniliprole.

| Structure (SMILES) | REC50 (Comparative compound) [1] | pest or weed control at 50 µg/mL [2] | REC50 (Compound of the invention) [1] |
| --- | --- | --- | --- |
| CNC(=O)c1cc(I)cc(F)c1NC(=O)c1cc(C(F)(F)F)nn1-c1ncccc1Cl | 3.99 | – | – |
| CNC(=O)c1cc(Br)cc(Br)c1NC(=O)c1cc(C(F)(F)F)nn1-c1ncccc1Cl | 0.98 | – | – |
| CNC(=O)c1cc(Cl)cc(Cl)c1NC(=O)c1cc(OC)nn1-c1ncccc1Cl | 1.20 | – | – |
| CNC(=O)c1cc(C#N)cc(C)c1NC(=O)c1cc(Cn2nnc(-c3ccc(C(F)(F)F)cc3)n2)nn1-c1ncccc1Cl | 2.41 | – | – |
| CNC(=O)c1cc(C#N)cc(C)c1NC(=O)c1cc(C(F)(F)F)nn1-c1ncccc1Cl | 3.65 | – | – |
| Cc1cc(I)cc(C(=O)NC(C)C)c1NC(=O)c1cc(C(F)(F)F)nn1-c1ncccc1Cl | 3.13 | – | – |
| CNC(=O)c1cc(I)cc(C)c1NC(=O)c1cc(Br)nn1-c1ncccc1Cl | 0.76 | – | – |
| CNC(=O)c1cc(Cl)cc(Cl)c1NC(=O)c1cc(Br)nn1-c1ncc(Cl)cc1Cl | 0.47 | – | – |
| Cc1cc(Br)cc(C(=O)NC(C)C)c1NC(=O)c1cc(C(F)(F)F)nn1-c1ncccc1Cl | 8.84 | – | – |
| CNC(=O)c1cc(Br)cc(Cl)c1NC(=O)c1cc(OC)nn1-c1ncccc1Cl | 1.32 | – | – |
| CNC(=O)c1cc(Br)cc(C)c1NC(=O)c1cc(OC)nn1-c1ncccc1Cl | 1.39 | – | – |
| Cc1cc(Cl)cc(C(=O)NC(C)C)c1NC(=O)c1cc(COCc2ccc(Cl)cc2)nn1-c1ncccc1Cl | 1.07 | – | – |
| COc1cc(C(=O)Nc2c(C)cc(Cl)cc2C(=O)NC(C)C)n(-c2ncccc2Cl)n1 | 2.57 | – | – |
| CNC(=O)c1cc(Cl)cc(C)c1NC(=O)c1cc(C(F)(F)F)nn1-c1ncccc1Cl | 1.48 | – | – |
| CNC(=O)c1cc(Cl)cc(C)c1NC(=O)c1cc(OC(F)F)nn1-c1ncccc1Cl | 0.58 | – | – |
| CCc1cc(C(=O)Nc2c(C)cc(Cl)cc2C(=O)NC)n(-c2ncccc2Cl)n1 | 1.41 | – | – |
| CNC(=O)c1cc(Cl)cc(C)c1NC(=O)c1cc(C2CC2)nn1-c1ncccc1Cl | 1.15 | – | – |
| CNC(=O)c1cc(Cl)cc(C)c1NC(=O)c1cc(OCC(F)(F)C(F)(F)F)nn1-c1ncccc1Cl | 1.85 | – | – |
| CNC(=O)c1cc(Cl)cc(C)c1NC(=O)c1cc(OCC(F)(F)F)nn1-c1ncccc1Cl | 1.29 | – | – |
| Cc1cc(Cl)cc(C(N)=O)c1NC(=O)c1cc(Cn2nnc(C3CC3)n2)nn1-c1ncccc1Cl [Compound P2, N-(2-carbamoyl-4-chloro-6-methyl-phenyl)-2-(3-chloro-2-pyridyl)-5-[(5-cyclopropyltetrazol-2-yl)methyl]pyrazole-3-carboxamide] | – | ≥ 80% | – |

| Structure (SMILES) | REC50 (Comparative compound) [1] | pest or weed control at 50 µg/mL [2] | REC50 (Compound of the invention) [1] |
| --- | --- | --- | --- |
| Cc1cc(Cl)cc(C(N)=O)c1NC(=O)c1cc(Cn2nnc(-c3ccc(C(F)(F)F)cc3)n2)nn1-c1ncccc1Cl [Compound P6, N-(2-carbamoyl-4-chloro-6-methyl-phenyl)-2-(3-chloro-2-pyridyl)-5-[[5-[4-(trifluoromethyl)phenyl]tetrazol-2-yl]methyl]pyrazole-3-carboxamide] | – | ≥ 80% | – |
| Cc1cc(Cl)cc(C(N)=O)c1NC(=O)c1cc(OCC(F)(F)C(F)(F)F)nn1-c1ncccc1Cl [Compound P8, N-(2-carbamoyl-4-chloro-6-methyl-phenyl)-2-(3-chloro-2-pyridyl)-5-(2,2,3,3,3-pentafluoropropoxy)pyrazole-3-carboxamide] | – | ≥ 80% | 0.14 |
| COc1cc(C(=O)Nc2c(C)cc(Cl)cc2C(N)=O)n(-c2ncccc2Cl)n1 [Compound P9, N-(2-carbamoyl-4-chloro-6-methyl-phenyl)-2-(3-chloro-2-pyridyl)-5-methoxy-pyrazole-3-carboxamide] | – | ≥ 80% | 0.37 |
| COc1cc(C(=O)Nc2c(C)cc(I)cc2C(N)=O)n(-c2ncccc2Cl)n1 [Compound P10, N-(2-carbamoyl-4-iodo-6-methyl-phenyl)-2-(3-chloro-2-pyridyl)-5-methoxy-pyrazole-3-carboxamide] | – | ≥ 80% | – |
| Cc1cc(Cl)cc(C(N)=O)c1NC(=O)c1cc(Cn2nnnc2-c2ccc(C(F)(F)F)cc2)nn1-c1ncccc1Cl [Compound P15, N-(2-carbamoyl-4-chloro-6-methyl-phenyl)-2-(3-chloro-2-pyridyl)-5-[[5-[4-(trifluoromethyl)phenyl]tetrazol-1-yl]methyl]pyrazole-3-carboxamide] | – | ≥ 80% | – |
| Cc1cc(Cl)cc(C(N)=O)c1NC(=O)c1cc(Cn2ncc(C(F)(F)F)n2)nn1-c1ncccc1Cl [Compound P19, N-(2-carbamoyl-4-chloro-6-methyl-phenyl)-2-(3-chloro-2-pyridyl)-5-[[4-(trifluoromethyl)triazol-2-yl]methyl]pyrazole-3-carboxamide] | – | ≥ 80% | – |
| Cc1cc(Cl)cc(C(N)=O)c1NC(=O)c1cc(Cn2cc(C(F)(F)F)nn2)nn1-c1ncccc1Cl [Compound P20, N-(2-carbamoyl-4-chloro-6-methyl-phenyl)-2-(3-chloro-2-pyridyl)-5-[[4-(trifluoromethyl)triazol-1-yl]methyl] pyrazole-3-carboxamide] | – | ≥ 80% | – |
| Cc1cc(Cl)cc(C(N)=O)c1NC(=O)c1cc(OC(F)F)nn1-c1ncccc1Cl [Compound P21, N-(2-carbamoyl-4-chloro-6-methyl-phenyl)-2-(3-chloro-2-pyridyl)-5-(difluoromethoxy)pyrazole-3-carboxamide] | – | ≥ 80% | 0.25 |
| Cc1cc(Cl)cc(C(N)=O)c1NC(=O)c1cc(C(F)F)nn1-c1ncccc1Cl [Compound P22, N-(2-carbamoyl-4-chloro-6-methyl-phenyl)-2-(3-chloro-2-pyridyl)-5-(difluoromethyl)pyrazole-3-carboxamide] | – | ≥ 80% | – |
| Cc1cc(Cl)cc(C(N)=O)c1NC(=O)c1cc(OCC(F)(F)F)nn1-c1ncccc1Cl [Compound P23, N-(2-carbamoyl-4-chloro-6-methyl-phenyl)-2-(3-chloro-2-pyridyl)-5-(2,2,2-trifluoroethoxy)pyrazole-3-carboxamide] | – | ≥ 80% | 0.17 |
| Cc1cc(Cl)cc(C(N)=O)c1NC(=O)c1cc(Br)nn1-c1ncccc1Cl [Compound P24, 5-bromo-N-(2-carbamoyl-4-chloro-6-methyl-phenyl)-2-(3-chloro-2-pyridyl)pyrazole-3-carboxamide] | – | ≥ 80% | 0.18 |
| Cc1cc(Cl)cc(C(N)=O)c1NC(=O)c1cc(C(F)(F)F)nn1-c1ncccc1Cl [Compound P25, N-(2-carbamoyl-4-chloro-6-methyl-phenyl)-2-(3-chloro-2-pyridyl)-5-(trifluoromethyl)pyrazole-3-carboxamide] | – | ≥ 80% | 0.18 |
| Cc1cc(C#N)cc(C(N)=O)c1NC(=O)c1cc(C(F)F)nn1-c1ncccc1Cl [Compound P28, N-(2-carbamoyl-4-cyano-6-methyl-phenyl)-2-(3-chloro-2-pyridyl)-5-(difluoromethyl)pyrazole-3-carboxamide] | – | ≥ 80% | – |
| Cc1cc(C#N)cc(C(N)=O)c1NC(=O)c1cc(OCC(F)(F)F)nn1-c1ncccc1Cl [Compound P32, N-(2-carbamoyl-4-cyano-6-methyl-phenyl)-2-(3-chloro-2-pyridyl)-5-(2,2,2-trifluoroethoxy)pyrazole-3-carboxamide] | – | ≥ 80% | – |
| NC(=O)c1cc(Br)cc(Cl)c1NC(=O)c1cc(Cn2nnc(-c3ccc(C(F)(F)F)cc3)n2)nn1-c1ncccc1Cl [Compound P44, N-(4-bromo-2-carbamoyl-6-chloro-phenyl)-2-(3-chloro-2-pyridyl)-5-[[5-[4-(trifluoromethyl)phenyl]tetrazol-2-yl]methyl]pyrazole-3-carboxamide] | – | ≥ 80% | – |
| NC(=O)c1cc(Cl)cc(Br)c1NC(=O)c1cc(Cn2nnc(-c3ccc(C(F)(F)F)cc3)n2)nn1-c1ncccc1Cl [Compound P57, N-(2-bromo-6-carbamoyl-4-chloro-phenyl)-2-(3-chloro-2-pyridyl)-5-[[5-[4-(trifluoromethyl)phenyl]tetrazol-2-yl]methyl]pyrazole-3-carboxamide] | – | ≥ 80% | – |
| Cc1cc(I)cc(C(N)=O)c1NC(=O)c1cc(Cn2nnc(-c3ccc(C(F)(F)F)cc3)n2)nn1-c1ncccc1Cl [Compound P62, N-(2-carbamoyl-4-iodo-6-methyl-phenyl)-2-(3-chloro-2-pyridyl)-5-[[5-[4-(trifluoromethyl)phenyl]tetrazol-2-yl]methyl]pyrazole-3-carboxamide] | – | ≥ 80% | – |
| CNC(=O)c1cc(C#N)cc(C)c1NC(=O)c1cc(Br)nn1-c1ncccc1Cl [Cyantraniliprole, cyantraniliprole, reference compound] | 1.00 | – | – |
| CC(NC(=O)c1cc(Cl)cc(Br)c1NC(=O)c1cc(Br)nn1-c1ncccc1Cl)C1CC1 (stereo not drawn) [Cyclaniliprole, cyclaniliprole, reference compound] | 4.70 | – | – |
